The results in this text go back to patent publication US20090136720A1, “Azo Compound, Ink Composition, Recording Method and Colored Article” (priority 2006, published 2009).

The data set is described as follows: Solubility of the azo compound. The format is physicochemical. The following applies: water; sodium salt.

Usually solubility stands for the dissolved amount per volume that the medium holds. Regarding `Cc1cc(N=Nc2c(S(=O)(=O)O)cc3c(S(=O)(=O)O)c(N=Nc4cc(S(=O)(=O)O)c5cc(S(=O)(=O)O)c(N=Nc6ccc([N+](=O)[O-])cc6S(=O)(=O)O)c(O)c5c4N)ccc3c2O)c(OCCCS(=O)(=O)O)cc1N=Nc1cc(S(=O)(=O)O)cc2cc(S(=O)(=O)O)cc(O)c12` [Compound No. 3], the solubility was at least 100 mg/mL.
